Series [1] has as its target T1, mgNIS (Mus musculus, UniProt Q99PN0).
T1 sequence (Q99PN0 1-618): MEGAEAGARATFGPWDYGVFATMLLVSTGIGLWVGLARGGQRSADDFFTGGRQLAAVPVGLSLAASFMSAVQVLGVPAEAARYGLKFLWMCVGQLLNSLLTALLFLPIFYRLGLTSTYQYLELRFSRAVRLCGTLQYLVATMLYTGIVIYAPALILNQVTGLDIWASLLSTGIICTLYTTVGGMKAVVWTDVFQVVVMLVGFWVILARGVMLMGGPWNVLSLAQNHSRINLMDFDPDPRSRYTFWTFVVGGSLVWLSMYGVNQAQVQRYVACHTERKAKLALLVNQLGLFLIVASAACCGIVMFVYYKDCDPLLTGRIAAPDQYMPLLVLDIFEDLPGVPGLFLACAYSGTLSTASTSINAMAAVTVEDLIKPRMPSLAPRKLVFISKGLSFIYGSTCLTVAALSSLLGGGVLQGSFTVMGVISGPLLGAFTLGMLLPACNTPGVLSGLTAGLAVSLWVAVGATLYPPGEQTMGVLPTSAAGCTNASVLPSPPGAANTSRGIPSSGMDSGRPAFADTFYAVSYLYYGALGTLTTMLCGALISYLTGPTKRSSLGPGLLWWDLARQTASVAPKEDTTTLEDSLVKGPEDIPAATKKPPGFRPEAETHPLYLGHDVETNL
The note with it: mice, 18th day of gestation, subcutaneous injection.
Description: Animals at indicated days of gestation (3rd, 11th, or 18th) received a single dose of 1 μCi ^125I^− by subcutaneous injection in 100 μl of PBS. One hour later, MG were surgically removed, and radioactivity was quantified in a γ-counter (LKB 1282 Compugamma, Md.). Obtained values were standardized according to the weight of MG removed from each mouse, and were expressed as the ratio of radioiodide in MG tissue versus blood.

Another series concerns the target T2, NIS (Rattus norvegicus, UniProt Q63008).
T2 construct: from tissue; host or cells: living female rats (nubile and lactating): thyroid, stomach, lactating mammary gland
T2 sequence (Q63008 1-618): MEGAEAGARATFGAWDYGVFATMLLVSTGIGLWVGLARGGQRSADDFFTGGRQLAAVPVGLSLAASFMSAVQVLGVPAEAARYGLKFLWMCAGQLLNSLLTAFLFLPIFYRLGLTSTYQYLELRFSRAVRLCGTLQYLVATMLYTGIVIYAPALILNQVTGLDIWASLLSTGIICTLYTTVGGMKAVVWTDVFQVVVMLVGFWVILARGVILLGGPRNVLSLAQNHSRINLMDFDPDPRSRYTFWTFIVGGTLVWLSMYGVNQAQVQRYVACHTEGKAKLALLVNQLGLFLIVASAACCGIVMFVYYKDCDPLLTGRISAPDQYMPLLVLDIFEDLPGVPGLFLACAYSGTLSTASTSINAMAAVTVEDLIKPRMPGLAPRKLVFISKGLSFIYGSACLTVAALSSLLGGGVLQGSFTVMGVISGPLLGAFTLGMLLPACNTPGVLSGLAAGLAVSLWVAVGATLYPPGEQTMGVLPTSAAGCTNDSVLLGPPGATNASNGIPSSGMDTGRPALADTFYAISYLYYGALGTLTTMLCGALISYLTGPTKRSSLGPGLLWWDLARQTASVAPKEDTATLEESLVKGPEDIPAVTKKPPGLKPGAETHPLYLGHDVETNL
It counts as in vivo. As to the method: FIG. 1. Characterization of I^− accumulation and NIS expression in rat lactating MG and stomach. (A)-(C) In vivo scintigraphic imaging of ^99mTcO4^− injected adult female rats. (A) Radiotracer (1.5 mCi) was injected into the tail vein of nubile animals, and pin-hole images of the body were obtained at 30 min post-injection. (B) Lactating rats were imaged 5 min after ^99mTcO4^− injection. (C) To ascertain inhibition of ^99mTcO4^− uptake, ^99mTcO4^− and 20 mg perchlorate were co-injected into the tail vein, followed by static imaging at 5 min. (D) Immunoblot analysis. Membrane fractions isolated from rat tissues were electrophoresed, electrotransferred onto nitrocellulose, and immunoblotted with affinity-purified anti-NIS antibody (Ab) and horseradish peroxidase (HRP) linked anti-rabbit IgG (Amersham-Pharmacia, Piscataway, N.J.). Approximately 40 μg of membrane fractions were incubated (either with or without N-glycosidase F) overnight at 37° C., followed by SDS polyacrylamide gel electrophoresis and Western blot analysis. Lanes 1 and 2: thyroid; lanes 4 and 5: lactating MG; lanes 7 and 8: stomach; lane 10: non-lactating MG; lane 11: muscle; and lane 12: lung. […]

Series [2] deals with T3, mgNIS (Homo sapiens, UniProt Q92911).
T3 construct: from tissue; host or cells: person with locally-advanced invasive ductal carcinoma of the breast (whole-body scan)
T3 sequence (Q92911 1-643): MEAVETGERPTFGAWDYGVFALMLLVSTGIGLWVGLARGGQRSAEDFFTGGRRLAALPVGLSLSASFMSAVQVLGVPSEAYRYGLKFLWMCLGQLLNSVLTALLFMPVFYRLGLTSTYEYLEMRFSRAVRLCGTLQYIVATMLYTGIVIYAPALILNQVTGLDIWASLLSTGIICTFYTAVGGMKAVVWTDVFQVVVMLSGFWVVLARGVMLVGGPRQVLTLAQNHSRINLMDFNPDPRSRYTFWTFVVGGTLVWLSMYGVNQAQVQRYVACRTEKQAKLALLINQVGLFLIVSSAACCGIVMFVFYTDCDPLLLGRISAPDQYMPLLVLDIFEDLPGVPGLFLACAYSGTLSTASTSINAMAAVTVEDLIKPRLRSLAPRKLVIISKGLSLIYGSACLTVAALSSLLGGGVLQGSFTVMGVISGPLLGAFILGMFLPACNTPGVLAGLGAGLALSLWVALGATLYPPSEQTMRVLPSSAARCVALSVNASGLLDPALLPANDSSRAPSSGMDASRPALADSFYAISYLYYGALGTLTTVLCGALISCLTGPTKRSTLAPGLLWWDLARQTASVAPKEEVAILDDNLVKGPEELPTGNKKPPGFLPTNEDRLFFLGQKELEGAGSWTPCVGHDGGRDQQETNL
In words: 99mTc-pertechnetate scintigraphy of a person with locally-advanced breast cancer. It counts as in vivo. The note with it: whole-body scan, invasive ductal carcinoma. An excerpt: FIG. 7. ^99mTc-pertechnetate scintigraphy of a person with a locally-advanced cancer of the right breast and an enlarged thyroid. The patient was scanned after injection of 15 mCi of ^99mTc-labeled pertechnetate (^99mTcO4^−). Tracer accumulates in the thyroid and stomach. Tracer is present in the heart and liver due to vascular pooling. The arrow indicates distinct accumulation in the area of the breast cancer.
The results obtained from the studies on transgenic mice, and the similarity between the human breast cancer immunohistochemical patterns and those observed in thyroid cancer, indicate the likelihood that mgNIS expressed in human breast tumors is active. Clearly, the most direct way to determine the activity of mgNIS in breast cancer is to subject patients to scintigraphic evaluation with ^99mTcO4^−. One patient who was undergoing neoadjuvant hormonal therapy for locally-advanced breast cancer presented initially with an enlarged thyroid. Accordingly, they underwent whole-body ^99mTcO4^− scanning.

The target in series [3] is T1, mgNIS. The class given is in vivo, mice. Also on record: Membrane fractions isolated from MG of nubile female mice; from tissue; host or cells: CD1 (ICR) mice (intact, ovariectomized, gestating) and MMTV-ras / MMTV-neu transgenic mice: mammary gland, mammary adenocarcinoma, stomach.
Description: Analysis of mammary adenocarcinomas in MMTV-ras and MMTV-neu transgenic mice. (A) Photograph of MMTV-ras transgenic mouse with a mammary adenocarcinoma. Transgenic mice were anaesthetized with intramuscular sodium pentobarbital injections. […] (E) Dynamic curves of percent injected dose per pixel were calculated by drawing regions of interest around tumoral tissue and the mediastinum, and dividing the counts per pixel (average counts) within each region of interest by the initial whole-body count value, thereby yielding a percent injected dose per pixel. (F) Immunoblot analysis of membrane fractions isolated from MMTV-ras tumor with anti-NIS Ab. (I) Immunoblot analysis of membrane fractions isolated from MMTV-neu tumors with anti-NIS Ab. In an MMTV-neu mouse with two adjacent mammary glands containing tumors, each tumor is indicated with an arrow and numbered. Lanes “tu1”, “tu2”, and “mg” correspond to proteins extracted from tumor 1, tumor 2, and contralateral normal mammary gland, respectively.
To assess whether specific active I^− uptake (a result of mgNIS expression) occurred in the mammary tumoral cells, transgenic animals were imaged in vivo with either ^131I^− or ^99mTcO4^−. […] Quantification of the accumulation of the various tracers in the tumor, as a function of time, is also shown for the ras mouse.
Series [4] deals with T1, mgNIS. In words: Ex vivo scintigraphic imaging of 99mTcO4- accumulation in organs of oxytocin-treated nubile mice. Also on record: Membrane fractions isolated from MG of nubile female mice; from tissue; host or cells: CD1 (ICR) mice (intact, ovariectomized, gestating) and MMTV-ras / MMTV-neu transgenic mice: mammary gland, mammary adenocarcinoma, stomach. The note with it: 2 mg perchlorate with tracer. As to the method: FIG. 3. In vivo effect of oxytocin on functional expression of mgNIS in nubile mice. (A) Radioiodide transport in MG of oxytocin-treated nubile mice. Seven- to eight-week-old female mice were treated subcutaneously with phosphate buffered saline solution (PBS), 10 I.U. of prolactin (PRL), 1 I.U. of oxytocin (OXY), or prolactin and oxytocin (PRL+OXY) for three days. Then, 1 μCi of ^125I^− was injected intraperitoneally. […] (B) Immunoblot analysis of MG from hormonally-treated mice. […] Isolated membrane fractions were electrophoresed, electrotransferred onto nitrocellulose, and analyzed by immunoblots using anti-NIS Ab. […] Perchlorate-inhibited accumulation of ^99mTcO4^− was detected in stomach and MG of OXY-treated animals. (D) Quantification of ^99mTcO4^− accumulation in various organs from OXY- or PBS-treated mice. Tracer accumulation was monitored using image analysis software (ImageQuant, Macintosh). […] Counts were divided by the weight of the organs (cpm/mg tissue), and standardized by dividing them by cpm detected in the blood (cpm/mg blood) of each animal. ^99mTcO4^− accumulation in the organs from: PBS-treated animals (open bars); OXY-treated animals (dotted bars); and OXY-treated animals after ^99mTcO4^−+perchlorate injection (dark bars). […]

Where [5] appears, read: lactating rats, single intraperitoneal injection.

Take `[125IH]` [^125I^−, radioiodide]: the “125I- concentration in lactating MG” value (lactating rat) is given as “concentrated in lactating MG”. Also, under setting [5], the “125I- concentration in milk with respect to blood” value is more than 60 fold and the “time of saturation of 125I- accumulation in milk” value is approximately 2 h. Further, the “125I- concentration in skeletal muscle or non-lactating MG” value (rat, in vivo) is “not concentrated”. Further, the “accumulation of radioiodide in MG compared with blood concentration” value on mgNIS [1] stood at 15 fold.

`[O]=[99Tc](=[O])(=[O])[O-]` [^99mTcO4^−, ^99mTc-pertechnetate]: the “time to concentration of 99mTcO4- in all pairs of MGs” value on NIS (lactating rats, tail vein injection) is listed as not above 5 min. For the same compound, the “tracer distribution in patient with breast tumor” value on mgNIS [2] is on record as “concentrated in the area of this patient's breast tumor”. Moreover, the “tracer accumulation in mammary tumor” value at mgNIS [3] (MMTV-ras and MMTV-neu mice, tail vein injection) is “accumulated in the stomach and tumor”.

`[O-][Cl+3]([O-])([O-])O` [perchlorate]: the “effect on 99mTcO4- concentration in thyroid, stomach, and lactating MG” value on NIS (lactating rat, 20 mg perchlorate co-injected, imaging at 5 min) was “effectively prevented”. Moreover, at mgNIS [4], the “effect on 99mTcO4- accumulation in organs” value is recorded as “inhibited”. In addition, the “effect on 99mTcO4- accumulation in tumor and stomach” value at mgNIS [3] (co-injected with the isotope) is “prevented”.

These data come from patent US7303740B2, “Methods for the diagnosis and treatment of breast cancer” (Albert Einstein College of Medicine of Yeshiva University, priority 2000, dated 2007).
